Data as given in patent publication US20070128217A1 (priority 2003, published 2007).

Legend:
[1] = tested on: rabbit serum obtained by immunizing a rabbit with the SARS-CoV strain Frankfurt 1; format: binding; design: Binding of a rabbit serum to linear peptides / Binding of a rabbit serum to looped peptides / Rabbit serum linear peptides / Rabbit serum looped peptides / Binding of a rabbit serum to linear peptides of protein N of SARS-CoV Urbani (Rabbit serum linear peptides) / Binding of a rabbit serum to looped/cyclic peptides of protein N of SARS-CoV Urbani (Rabbit serum looped peptides): unit not given here
[2] = tested on: control sera (pooled serum of ten healthy LUMC hospital workers; commercial negative donor pooled serum from the Dutch bloodbank); format: binding, human; design: Binding of Control serum LUMC to linear peptides / Binding of Control serum Blood-bank to linear peptides / Binding of Control serum LUMC to looped peptides / Binding of Control Serum Blood-Bank to Looped peptides / Binding of Control serum LUMC to linear peptides of the protein M of SARS-CoV Urbani / Binding of Control serum Blood-bank to linear peptides of the protein M of SARS-CoV Urbani / Binding of Control serum LUMC to looped peptides of the protein M of SARS-CoV Urbani / Binding of Control Serum Blood-Bank to Looped peptides of the protein M of SARS-CoV Urbani: unit not given here
[3] = tested on: antibodies in sera from SARS patients (sera 1a, 1b, 2, 6, 37, 62, London, SARS-yellow, SARS-green); format: binding, human; design: Binding of serum 6 to linear peptides of protein X1 of SARS-CoV Urbani / Binding of serum 37 to linear peptides of protein X1 of SARS-CoV Urbani / Binding of serum 6 to looped/cyclic peptide (PEPSCAN-ELISA) / Binding of serum 37 to looped/cyclic peptide (PEPSCAN-ELISA) / Binding of serum 37 to looped/cyclic peptides of protein X1 of SARS-CoV Urbani / Binding of serum 6 to linear peptides of protein X2 / Binding of serum 37 to linear peptides of protein X2 / Binding of serum 37 to looped/cyclic peptides of protein X2 of SARS-CoV Urbani / Binding of serum 6 to linear peptides of protein M of SARS-CoV Urbani / Binding of serum 37 to linear peptides of protein M of SARS-CoV Urbani / Binding of serum 6 to looped/cyclic peptides of protein M of SARS-CoV Urbani / Binding of serum 37 to looped/cyclic peptides of protein M of SARS-CoV Urbani / Binding of serum 6 to linear peptides of protein X3 of SARS-CoV Urbani / Binding of serum 37 to linear peptides of protein X3 of SARS-CoV Urbani / Binding of serum 37 to looped/cyclic peptides of protein X3 of SARS-CoV Urbani / Binding of serum 6 to linear peptides of protein X4 of SARS-CoV Urbani / Binding of serum 37 to linear peptides of protein X4 of SARS-CoV Urbani / Binding of serum 37 to looped/cyclic peptides of protein X4 of SARS-CoV Urbani / Binding of serum 6 to linear peptides of protein X5 of SARS-CoV Urbani / Binding of serum 37 to linear peptides of protein X5 of SARS-CoV Urbani / Binding of serum 37 to looped/cyclic peptides of protein X5 of SARS-CoV Urbani / Binding of serum 6 to linear peptides of protein N of SARS-CoV Urbani / Binding of serum 37 to linear peptides of protein N of SARS-CoV Urbani / Binding of serum 6 to linear peptide (PEPSCAN-ELISA) / Binding of serum 1a to looped/cyclic peptides of protein N of SARS-CoV Urbani / Binding of serum 1b to looped/cyclic peptides of protein N of SARS-CoV Urbani / Binding of serum 2 to looped/cyclic peptides of protein N of SARS-CoV Urbani / Binding of serum 6 to looped/cyclic peptides of protein N of SARS-CoV Urbani / Binding of serum 37 to looped/cyclic peptides of protein N of SARS-CoV Urbani / Binding of serum 62 to looped/cyclic peptides of protein N of SARS-CoV Urbani / Binding of serum London to looped/cyclic peptides of protein N of SARS-CoV Urbani / Binding of serum SARS-green to looped/cyclic peptides of protein N of SARS-CoV Urbani: unit not given here

LLFVTIYSHLLLVAA
Binding of a rabbit serum to linear peptides [1]: 0.1 | Binding of a rabbit serum to looped peptides [1]: 0.5 | Binding of Control Serum Blood-Bank to Looped peptides [2]: 0.4 | Binding of Control serum Blood-bank to linear peptides [2]: 0.5 | Binding of Control serum LUMC to linear peptides [2]: 0.4 | Binding of Control serum LUMC to looped peptides [2]: 0.6 | Binding of serum 1a to linear peptides of protein X1 of SARS-CoV Urbani [3]: 0.7 | Binding of serum 1a to looped/cyclic peptide (PEPSCAN-ELISA) [3]: 0.4 | Binding of serum 1b to linear peptides of protein X1 of SARS-CoV Urbani [3]: 0.2 | Binding of serum 1b to looped/cyclic peptide (PEPSCAN-ELISA) [3]: 0.3 | Binding of serum 2 to linear peptides of protein X1 of SARS-CoV Urbani [3]: 0.5 | Binding of serum 2 to looped/cyclic peptide (PEPSCAN-ELISA) [3]: 0.3 | Binding of serum 6 to linear peptides of protein X1 of SARS-CoV Urbani [3]: 0.4 | Binding of serum 6 to looped/cyclic peptide (PEPSCAN-ELISA) [3]: 0.2 | Binding of serum 37 to linear peptides of protein X1 of SARS-CoV Urbani [3]: 0.6 | Binding of serum 37 to looped/cyclic peptide (PEPSCAN-ELISA) [3]: 0.4 | Binding of serum 62 to linear peptides of protein X1 of SARS-CoV Urbani [3]: 0.5 | Binding of serum 62 to looped/cyclic peptide (PEPSCAN-ELISA) [3]: 0.5 | Binding of serum London to linear peptides of protein X1 of SARS-CoV Urbani [3]: 0.2 | Binding of serum London to looped/cyclic peptide (PEPSCAN-ELISA) [3]: 0.2 | Binding of serum SARS-green to linear peptides of protein X1 of SARS-CoV Urbani [3]: 0.3 | Binding of serum SARS-green to looped/cyclic peptide (PEPSCAN-ELISA) [3]: 0.2 | Binding of serum SARS-yellow to linear peptides of protein X1 of SARS-CoV Urbani [3]: 0.3 | Binding of serum SARS-yellow to looped/cyclic peptide (PEPSCAN-ELISA) [3]: 0.4

LLKEPCPSGTYEGNS
Rabbit serum linear peptides [1]: 0.3 | Rabbit serum looped peptides [1]: 0.1 | Binding of Control Serum Blood-Bank to Looped peptides [2]: 0.6 | Binding of Control serum Blood-bank to linear peptides [2]: 0.6 | Binding of Control serum LUMC to linear peptides [2]: 0.6 | Binding of Control serum LUMC to looped peptides [2]: 0.8 | Binding of serum 1a to linear peptides of protein X4 of SARS-CoV Urbani [3]: 0.8 | Binding of serum 1a to looped/cyclic peptides of protein X4 of SARS-CoV Urbani [3]: 0.8 | Binding of serum 1b to linear peptides of protein X4 of SARS-CoV Urbani [3]: 0.6 | Binding of serum 1b to looped/cyclic peptides of protein X4 of SARS-CoV Urbani [3]: 0.6 | Binding of serum 2 to linear peptides of protein X4 of SARS-CoV Urbani [3]: 0.3 | Binding of serum 2 to looped/cyclic peptides of protein X4 of SARS-CoV Urbani [3]: 0.6 | Binding of serum 6 to linear peptides of protein X4 of SARS-CoV Urbani [3]: 0.6 | Binding of serum 6 to looped/cyclic peptides of protein X4 of SARS-CoV Urbani [3]: 0.7 | Binding of serum 37 to linear peptides of protein X4 of SARS-CoV Urbani [3]: 0.6 | Binding of serum 37 to looped/cyclic peptides of protein X4 of SARS-CoV Urbani [3]: 0.7 | Binding of serum 62 to linear peptides of protein X4 of SARS-CoV Urbani [3]: 0.8 | Binding of serum 62 to looped/cyclic peptides of protein X4 of SARS-CoV Urbani [3]: 0.5 | Binding of serum London to linear peptides of protein X4 of SARS-CoV Urbani [3]: 0.8 | Binding of serum London to looped/cyclic peptides of protein X4 of SARS-CoV Urbani [3]: 0.3 | Binding of serum SARS-green to linear peptides of protein X4 of SARS-CoV Urbani [3]: 0.5 | Binding of serum SARS-green to looped/cyclic peptides of protein X4 of SARS-CoV Urbani [3]: 0.7 | Binding of serum SARS-yellow to linear peptides of protein X4 of SARS-CoV Urbani [3]: 0.2 | Binding of serum SARS-yellow to looped/cyclic peptides of protein X4 of SARS-CoV Urbani [3]: 0.2

LLNVPLRGTIVTRPL
Rabbit serum linear peptides [1]: 0.4 | Rabbit serum looped peptides [1]: 0.0 | Binding of Control Serum Blood-Bank to Looped peptides of the protein M of SARS-CoV Urbani [2]: 0.9 | Binding of Control serum Blood-bank to linear peptides of the protein M of SARS-CoV Urbani [2]: 0.7 | Binding of Control serum LUMC to linear peptides of the protein M of SARS-CoV Urbani [2]: 0.4 | Binding of Control serum LUMC to looped peptides of the protein M of SARS-CoV Urbani [2]: 0.5 | Binding of serum 1a to linear peptides of protein M of SARS-CoV Urbani [3]: 0.8 | Binding of serum 1b to linear peptides of protein M of SARS-CoV Urbani [3]: 0.5 | Binding of serum 2 to linear peptides of protein M of SARS-CoV Urbani [3]: 0.5 | Binding of serum 6 to linear peptides of protein M of SARS-CoV Urbani [3]: 0.5 | Binding of serum 37 to linear peptides of protein M of SARS-CoV Urbani [3]: 0.6 | Binding of serum 62 to linear peptides of protein M of SARS-CoV Urbani [3]: 0.7 | Binding of serum London to linear peptides of protein M of SARS-CoV Urbani [3]: 0.4 | Binding of serum SARS-green to linear peptides of protein M of SARS-CoV Urbani [3]: 0.3 | Binding of serum SARS-yellow to linear peptides of protein M of SARS-CoV Urbani [3]: 0.1 | Recognition of the peptide by sera of SARS-CoV infected individuals, and form (linear, looped/cyclic) in which it is recognized [3]: recognized in looped/cyclic form

LLQFAYSNRNRFLYI
Rabbit serum linear peptides [1]: 0.2 | Rabbit serum looped peptides [1]: 0.4 | Binding of Control Serum Blood-Bank to Looped peptides of the protein M of SARS-CoV Urbani [2]: 0.5 | Binding of Control serum Blood-bank to linear peptides of the protein M of SARS-CoV Urbani [2]: 0.6 | Binding of Control serum LUMC to linear peptides of the protein M of SARS-CoV Urbani [2]: 0.6 | Binding of Control serum LUMC to looped peptides of the protein M of SARS-CoV Urbani [2]: 0.5 | Binding of serum 1a to linear peptides of protein M of SARS-CoV Urbani [3]: 0.7 | Binding of serum 1a to looped/cyclic peptides of protein M of SARS-CoV Urbani [3]: 0.7 | Binding of serum 1b to linear peptides of protein M of SARS-CoV Urbani [3]: 0.6 | Binding of serum 1b to looped/cyclic peptides of protein M of SARS-CoV Urbani [3]: 0.5 | Binding of serum 2 to linear peptides of protein M of SARS-CoV Urbani [3]: 0.4 | Binding of serum 2 to looped/cyclic peptides of protein M of SARS-CoV Urbani [3]: 0.6 | Binding of serum 6 to linear peptides of protein M of SARS-CoV Urbani [3]: 0.3 | Binding of serum 6 to looped/cyclic peptides of protein M of SARS-CoV Urbani [3]: 0.6 | Binding of serum 37 to linear peptides of protein M of SARS-CoV Urbani [3]: 0.3 | Binding of serum 37 to looped/cyclic peptides of protein M of SARS-CoV Urbani [3]: 0.5 | Binding of serum 62 to linear peptides of protein M of SARS-CoV Urbani [3]: 0.3 | Binding of serum 62 to looped/cyclic peptides of protein M of SARS-CoV Urbani [3]: 0.4 | Binding of serum London to linear peptides of protein M of SARS-CoV Urbani [3]: 0.3 | Binding of serum London to looped/cyclic peptides of protein M of SARS-CoV Urbani [3]: 0.2 | Binding of serum SARS-green to linear peptides of protein M of SARS-CoV Urbani [3]: 0.5 | Binding of serum SARS-green to looped/cyclic peptides of protein M of SARS-CoV Urbani [3]: 0.1 | Binding of serum SARS-yellow to linear peptides of protein M of SARS-CoV Urbani [3]: 0.2 | Binding of serum SARS-yellow to looped/cyclic peptides of protein M of SARS-CoV Urbani [3]: 0.5
